Laboratory results reported in ChEMBL document CHEMBL4831484, “Identification of 3, 4-disubstituted pyridine derivatives as novel CDK8 inhibitors” (Eur J Med Chem, 2021).
pIC50: −log10 of the molar value. Active and inactive are the calls of the source. The rule behind the calls is not given here.

Key:
[1] = target: CDK8/Cyclin C (Homo sapiens) (UniProt P49336+P24863); test: Inhibition of CDK8/Cyclin C (unknown origin) at 10 uM measured after 1 hr by plate reader assay relative to control; type: protein-complex assay
KB = test: Antiproliferative activity against human KB cells assessed as inhibition of cell growth measured after 72 hrs by SRB assay; type: functional
MDA-MB-231 [2] = test: Antiproliferative activity against human MDA-MB-231 cells assessed as inhibition of cell growth measured after 72 hrs by SRB assay; type: functional
[3] = Antiproliferative activity against human KB-VIN cells assessed as inhibition of cell growth measured after 72 hrs by SRB assay; type: functional; settings: KBVIN
CDK8/Cyclin C = CDK8/Cyclin C (Homo sapiens, UniProt P49336); test: Inhibition of CDK8/Cyclin C (unknown origin) measured after 1 hr by plate reader assay; type: protein-complex assay
Sequence of CDK8/Cyclin C (P49336 whole entry): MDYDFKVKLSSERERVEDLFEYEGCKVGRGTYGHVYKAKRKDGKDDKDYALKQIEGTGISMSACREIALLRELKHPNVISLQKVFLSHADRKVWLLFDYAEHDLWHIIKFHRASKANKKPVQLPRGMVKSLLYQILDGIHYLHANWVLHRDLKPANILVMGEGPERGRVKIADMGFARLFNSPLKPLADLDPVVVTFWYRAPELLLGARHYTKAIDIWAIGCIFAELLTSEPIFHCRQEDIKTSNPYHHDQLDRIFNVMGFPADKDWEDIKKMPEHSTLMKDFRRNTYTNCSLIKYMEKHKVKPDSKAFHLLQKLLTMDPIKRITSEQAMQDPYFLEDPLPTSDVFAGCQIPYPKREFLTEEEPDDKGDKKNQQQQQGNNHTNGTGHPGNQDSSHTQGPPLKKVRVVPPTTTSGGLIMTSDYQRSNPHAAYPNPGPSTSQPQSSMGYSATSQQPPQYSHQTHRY
Sequence of CDK8/Cyclin C (P24863 whole entry, further chain): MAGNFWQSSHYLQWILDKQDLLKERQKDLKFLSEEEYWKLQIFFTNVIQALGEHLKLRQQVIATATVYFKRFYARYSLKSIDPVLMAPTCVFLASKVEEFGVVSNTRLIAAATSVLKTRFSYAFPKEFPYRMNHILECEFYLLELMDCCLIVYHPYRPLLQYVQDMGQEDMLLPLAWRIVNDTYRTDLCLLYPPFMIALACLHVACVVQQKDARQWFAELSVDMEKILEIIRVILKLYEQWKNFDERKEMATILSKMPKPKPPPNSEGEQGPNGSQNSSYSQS

MDA-MB-231 [4] = test: Induction of cell cycle arrest in human MDA-MB-231 cells assessed as accumulation of cells at G2/M phase measured after 24 hrs by PI staining based flow cytometry assay; type: functional
A549 = test: Antiproliferative activity against human A549 cells assessed as inhibition of cell growth measured after 72 hrs by SRB assay; type: functional
MCF7 = test: Antiproliferative activity against human MCF7 cells assessed as inhibition of cell growth measured after 72 hrs by SRB assay; type: functional
HCT-116 [5] = test: Antiproliferative activity against human HCT-116 cells assessed as inhibition of cell growth measured after 72 hrs by […]; type: functional
[6] = target: Cyclin-dependent kinase 8 (Homo sapiens) (UniProt P49336); test: Inhibition of CDK8 (unknown origin) at 10 uM
Sequence of Cyclin-dependent kinase 8 (Homo sapiens) (P49336 whole entry): as the sequence (P49336 whole entry) above

[7] = target: Cyclin-dependent kinase 7 (Homo sapiens) (UniProt P50613); test: Inhibition of CDK7 (unknown origin) at 10 uM
Sequence of Cyclin-dependent kinase 7 (Homo sapiens) (P50613 whole entry): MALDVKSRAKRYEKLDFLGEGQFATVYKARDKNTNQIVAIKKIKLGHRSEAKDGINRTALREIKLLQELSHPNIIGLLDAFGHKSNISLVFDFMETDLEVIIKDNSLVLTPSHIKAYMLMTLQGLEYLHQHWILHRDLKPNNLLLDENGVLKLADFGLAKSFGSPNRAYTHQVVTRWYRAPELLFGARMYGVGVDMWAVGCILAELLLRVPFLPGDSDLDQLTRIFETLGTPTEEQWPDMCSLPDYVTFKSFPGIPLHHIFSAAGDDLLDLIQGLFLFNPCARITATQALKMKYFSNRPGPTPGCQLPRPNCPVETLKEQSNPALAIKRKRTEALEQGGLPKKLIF

[8] = MRT (0 to 24h) in ICR mouse at 150 mg/kg, po measured after 24 hrs by LC-MS/MS analysis; type: ADME, organism-based; settings: in vivo
[9] = Toxicity in BALB/c mouse xenografted with human HCT-116 cells assessed as changes in body weight at 150 mg/kg, po measured after 14 days; type: organism-based; settings: in vivo, 336 h, time 14 day
[10] = Tmax in ICR mouse at 150 mg/kg, po measured after 24 hrs by LC-MS/MS analysis; type: ADME, organism-based; settings: in vivo
[11] = Half-life in ICR mouse at 150 mg/kg, po measured after 24 hrs by LC-MS/MS analysis; type: ADME, organism-based; settings: in vivo
HCT-116 [12] = test: Antitumour activity against human HCT-116 cells assessed as decrease in tumor volume at 150 mg/kg, po measured after 14 days relative to control; type: functional; design: scale not given: the % may be the effect or the level left; settings: time 14 day
[13] = Toxicity in BALB/c mouse xenografted with human HCT-116 cells assessed as mortality at 150 mg/kg, po measured after 14 days; type: organism-based; settings: in vivo, 336 h, time 14 day
[14] = Cmax in ICR mouse at 150 mg/kg, po measured after 24 hrs by LC-MS/MS analysis; type: ADME, organism-based; design: route oral, time 24 hrs, dose 150 mg/kg; settings: in vivo
[15] = AUC (0 to 24h) in ICR mouse at 150 mg/kg, po measured after 24 hrs by LC-MS/MS analysis; type: ADME, organism-based; design: route oral, dose 150 mg/kg, time 24 hrs; settings: in vivo

inhibition [1] [%]	GI50 (KB) [µM]	GI50 (MDA-MB-231 [2]) [µM]	pIC50 (CDK8/Cyclin C)	GI50 (A549) [µM]	GI50 (MCF7) [µM]	GI50 (HCT-116 [5]) [µM]	inhibition [6]	inhibition [7]	Compound	GI50 [3] [µM]	Activity (MDA-MB-231 [4])	MRT last at 24 h [8] [h]	Activity [9]	Tmax [10] [h]	half-life [11] [h]	Activity (HCT-116 [12]) [%]	Activity [13]	Cmax [14] [ng/mL]	AUC(0-t) at 24 h [15] [ng·h/mL]
100	7.76	7.99	7.52	5.8	8.19	4.54	–	–	CN(C)C(=O)/C=C/c1ccncc1-c1ccc2ccccc2c1	4.93	Dose-Dependent Effect	–	–	–	–	–	–	–	–
102	> 10	> 10	7.36	> 10	> 10	> 30	Active	Active	O=C(/C=C/c1ccncc1-c1ccc2cc[nH]c2c1)N1CCOCC1	> 10	–	–	–	–	–	–	–	–	–

Compound	inhibition [1] [%]	GI50 (KB) [µM]	GI50 (MDA-MB-231 [2]) [µM]	pIC50 (CDK8/Cyclin C)	GI50 (A549) [µM]	GI50 (MCF7) [µM]	GI50 (HCT-116 [5]) [µM]	inhibition [6]	inhibition [7]	GI50 [3] [µM]	Activity (MDA-MB-231 [4])	MRT last at 24 h [8] [h]	Activity [9]	Tmax [10] [h]	half-life [11] [h]	Activity (HCT-116 [12]) [%]	Activity [13]	Cmax [14] [ng/mL]	AUC(0-t) at 24 h [15] [ng·h/mL]
COC(=O)/C=C/c1ccncc1-c1ccc2ccccc2c1	102	6.73	4.71	7.39	0.76	8.17	0.35	–	–	5.46	–	2.68	Non-Toxic	0.57	3.93	44	Non-Toxic	46.6	153
